This is an account of results in patent US10786488B2, “Substituted quinolizine derivatives useful as HIV integrase inhibitors” (MERCK SHARP & DOHME CORP., priority 2017, dated 2020).

The nature of series [1]: Stability of compounds in whole blood (human). The series is classed as in vitro ADME. Particulars: 1 μM compound, 37° C. As to the method: (§1) Selected compounds of the present invention (1 μM) were incubated with whole blood (with heparin) from rat, dog and human. The samples were incubated for 0, 0.5, 1 and 2 hours in a 95% humidified incubator at 37° C. with 5% CO2. At each time point, the samples were quenched with acetonitrile containing an appropriate internal standard. The samples were then vortex-mixed and centrifuged at 2,500×g for 20 minutes. The supernatants were transferred to clean plates and analyzed using LC-MS/MS. The stability of the analyte was assessed by determining the percentage of drug loss over the course of time.

Series [2] in a line: Stability of compounds in whole blood (rat). The series is classed as in vitro ADME. The conditions noted are these: 1 μM compound, 37° C. As for the experimental part: as §1
Series [3] can be described thus: Stability of compounds in whole blood (dog). In kind it is in vitro ADME. The conditions noted are these: 1 μM compound, 37° C. As to the method:
as §1

Series [4] is described as follows: Dog pharmacokinetic studies, oral administration to fasted Beagle dogs. In kind it is in vivo. Particulars: dose equivalent to 10 mg/kg of Compound Int-1. As for the experimental part:
Male Beagle Dogs (Marshall Farms) were used for the pharmacokinetic studies. Studies were conducted under a protocol approved by the WP-IACUC (Animal Procedure Statement #2018-600787-MAR). Following overnight-fasting, dogs were dosed orally with either Compound Int-1 at 10 mg/kg or one of the respective prodrugs at the dose equivalent to 10 mg/kg of Compound Int-1 formulated as a suspension in Orablend® SF. Dosing was followed by 15 mL water rinse via oral gavage. Food was returned at 4 hours after dosing. Blood (0.5-mL) was drawn at pre-dose, 0.25, 0.5, 1, 2, 4, 6, 24, 30, 48, 54 and 72 hours post-dosing into EDTA-coated collection tubes containing 25 μL of 2 mM dichlorvos solution in water. The tubes were kept chilled prior to blood collection and throughout plasma separation. The plasma was separated by centrifugation (2 minutes at 10000 g). After processing, 10 uL of 10% formic acid was added to each 200 uL of plasma. Acidified plasma samples were immediately frozen and kept at −70° C. until analysis by LC-MS/MS.
Mean [±SD] Pharmacokinetic Parameters for Compounds after Oral Administration to Fasted Beagle Dogs at Dose Equivalent to 10 mg/kg of Compound Int-1.

Take `CCOC(=O)Oc1c2n(cc(C(=O)NCc3ccc(F)cc3F)c1=O)C[C@@H]1OCCC[C@]1(C)C2=O` [Compound 1]: the “Remaining at 2 hours” value in series [1] came out at 24%; in series [2], 0%; in series [3] it was 19%.

Consider `CC(C)OC(=O)OCOc1c2n(cc(C(=O)NCc3ccc(F)cc3F)c1=O)C[C@@H]1OCCC[C@]1(C)C2=O` [Compound 3], for which the “absorption versus metabolite Compound Int-1” value in series [4] is reported as “significant increase in absorption”.

In the case of `CCOC(=O)OCOc1c2n(cc(C(=O)NCc3ccc(F)cc3F)c1=O)C[C@@H]1OCCC[C@]1(C)C2=O` [Compound 4], the “absorption versus metabolite Compound Int-1” value in series [4] is reported as “significant increase in absorption”.
